# Test results: PubChem BioAssay AID256 (DTP/NCI, 2004)
# Where “and” joins values, the source holds several entries; their conditions need not be identical. Identical values can stand only once. Inconclusive results and toxic doses are left out.
# Tested on: CD2F1 mice, L1210 leukemia ip, survival T/C
# Assay: NCI In Vivo Anticancer Drug Screen. Data for tumor model L1210 Leukemia (intraperitoneal) in CD2F1 (CDF1) mice
# Conditions: higher = longer survival
# Summary of the method: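 Read-out first: treated-group measurement over vehicle-control measurement, expressed as a ratio. Animals bore a transplanted tumor line and were dosed with compound or vehicle.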
structure (smiles),measurement,setting,value
Cc1cc(NCCCCCCNc2cc(C)nc3ccc(N)cc23)c2cc(N)ccc2n1,T/C,"endpoint: mean survival time, dose: 0.16 mg/kg/injection, schedule: Q08HX006 (iv), vehicle: water",103 % of control
same,T/C,"endpoint: mean survival time, dose: 0.31 mg/kg/injection, schedule: Q08HX006 (iv), vehicle: water",104 % of control
same,T/C,"endpoint: mean survival time, dose: 0.4 mg/kg/injection, schedule: Q08HX009 (ip), vehicle: water",105 % of control
same,T/C,"endpoint: mean survival time, dose: 0.6 mg/kg/injection, schedule: Q01DX009 (ip), vehicle: water",98 % of control
same,T/C,"endpoint: mean survival time, dose: 0.6 mg/kg/injection, schedule: Q08HX009 (iv), vehicle: water",88 % of control
same,T/C,"endpoint: mean survival time, dose: 0.63 mg/kg/injection, schedule: Q08HX006 (iv), vehicle: water",92 % of control
same,T/C,"endpoint: mean survival time, dose: 0.8 mg/kg/injection, schedule: Q08HX009 (ip), vehicle: water",101 % of control
same,T/C,"endpoint: mean survival time, dose: 1.1 mg/kg/injection, schedule: Q01DX005 (iv), vehicle: water",104 % of control
same,T/C,"endpoint: mean survival time, dose: 1.2 mg/kg/injection, schedule: Q01DX009 (ip), vehicle: water",97 % of control
same,T/C,"endpoint: mean survival time, dose: 1.25 mg/kg/injection, schedule: Q08HX006 (iv), vehicle: water",103 % of control
same,T/C,"endpoint: mean survival time, dose: 1.3 mg/kg/injection, schedule: Q08HX009 (iv), vehicle: water",94 % of control
same,T/C,"endpoint: mean survival time, dose: 1.4 mg/kg/injection, schedule: Q01DX005 (iv), vehicle: water",98 % of control
same,T/C,"endpoint: mean survival time, dose: 1.56 mg/kg/injection, schedule: Q01DX009 (ip), vehicle: water",103 % of control and 111 % of control
same,T/C,"endpoint: mean survival time, dose: 1.6 mg/kg/injection, schedule: Q08HX009 (ip), vehicle: water",104 % of control
same,T/C,"endpoint: mean survival time, dose: 1.9 mg/kg/injection, schedule: Q01DX005 (iv), vehicle: water",101 % of control
same,T/C,"endpoint: mean survival time, dose: 1.9 mg/kg/injection, schedule: Q08HX009 (iv), vehicle: saline with Tween-80",92 % of control
same,T/C,"endpoint: mean survival time, dose: 2.4 mg/kg/injection, schedule: Q01DX009 (ip), vehicle: saline with Tween-80",114 % of control and 116 % of control
same,T/C,"endpoint: mean survival time, dose: 2.4 mg/kg/injection, schedule: Q01DX009 (ip), vehicle: water",111 % of control
same,T/C,"endpoint: mean survival time, dose: 2.5 mg/kg/injection, schedule: Q01DX005 (iv), vehicle: water",103 % of control
same,T/C,"endpoint: mean survival time, dose: 2.5 mg/kg/injection, schedule: Q08HX006 (iv), vehicle: water",105 % of control
same,T/C,"endpoint: mean survival time, dose: 2.5 mg/kg/injection, schedule: Q08HX009 (ip), vehicle: saline with Tween-80",119 % of control
same,T/C,"endpoint: mean survival time, dose: 2.5 mg/kg/injection, schedule: Q08HX009 (iv), vehicle: water",93 % of control
same,T/C,"endpoint: mean survival time, dose: 2.53 mg/kg/injection, schedule: Q01DX005 (iv), vehicle: water",95 % of control
same,T/C,"endpoint: mean survival time, dose: 2.58 mg/kg/injection, schedule: Q01DX005 (iv), vehicle: saline with Tween-80",101 % of control
same,T/C,"endpoint: mean survival time, dose: 3.0 mg/kg/injection, schedule: Q01DX009 (ip), vehicle: water",95 % of control and 107 % of control
same,T/C,"endpoint: mean survival time, dose: 3.13 mg/kg/injection, schedule: Q01DX009 (ip), vehicle: water",113 % of control and 124 % of control
same,T/C,"endpoint: mean survival time, dose: 3.2 mg/kg/injection, schedule: Q08HX009 (ip), vehicle: water",112 % of control
same,T/C,"endpoint: mean survival time, dose: 3.38 mg/kg/injection, schedule: Q01DX005 (iv), vehicle: water",100 % of control
same,T/C,"endpoint: mean survival time, dose: 3.38 mg/kg/injection, schedule: Q01DX009 (sc), vehicle: water",98 % of control
same,T/C,"endpoint: mean survival time, dose: 3.4 mg/kg/injection, schedule: Q01DX005 (iv), vehicle: water",101 % of control
same,T/C,"endpoint: mean survival time, dose: 3.44 mg/kg/injection, schedule: Q01DX009 (ip), vehicle: saline with Tween-80",114 % of control
same,T/C,"endpoint: mean survival time, dose: 3.44 mg/kg/injection, schedule: Q01DX009 (sc), vehicle: saline with Tween-80",100 % of control
same,T/C,"endpoint: mean survival time, dose: 3.7 mg/kg/injection, schedule: Q01DX009 (ip), vehicle: saline with Tween-80",117 % of control
same,T/C,"endpoint: mean survival time, dose: 3.8 mg/kg/injection, schedule: Q08HX006 (iv), vehicle: saline with Tween-80",101 % of control
same,T/C,"endpoint: mean survival time, dose: 3.8 mg/kg/injection, schedule: Q08HX009 (iv), vehicle: saline with Tween-80",88 % of control
same,T/C,"endpoint: mean survival time, dose: 4.51 mg/kg/injection, schedule: Q01DX009 (ip), vehicle: water",113 % of control
same,T/C,"endpoint: mean survival time, dose: 4.59 mg/kg/injection, schedule: Q01DX009 (ip), vehicle: saline with Tween-80",115 % of control
same,T/C,"endpoint: mean survival time, dose: 4.59 mg/kg/injection, schedule: Q01DX009 (sc), vehicle: saline with Tween-80",96 % of control
same,T/C,"endpoint: mean survival time, dose: 4.7 mg/kg/injection, schedule: Q01DX009 (ip), vehicle: saline with Tween-80",121 % of control
same,T/C,"endpoint: mean survival time, dose: 4.8 mg/kg/injection, schedule: Q01DX009 (ip), vehicle: water",114 % of control
same,T/C,"endpoint: mean survival time, dose: 5.0 mg/kg/injection, schedule: Q08HX006 (iv), vehicle: water",100 % of control
same,T/C,"endpoint: mean survival time, dose: 5.3 mg/kg/injection, schedule: Q01DX009 (ip), vehicle: water",114 % of control and 97 % of control
same,T/C,"endpoint: mean survival time, dose: 6.12 mg/kg/injection, schedule: Q01DX005 (iv), vehicle: saline with Tween-80",97 % of control
same,T/C,"endpoint: mean survival time, dose: 6.12 mg/kg/injection, schedule: Q01DX009 (ip), vehicle: saline with Tween-80",119 % of control
same,T/C,"endpoint: mean survival time, dose: 6.12 mg/kg/injection, schedule: Q01DX009 (sc), vehicle: saline with Tween-80",97 % of control
same,T/C,"endpoint: mean survival time, dose: 6.25 mg/kg/injection, schedule: Q01DX009 (ip), vehicle: water",122 % of control
same,T/C,"endpoint: mean survival time, dose: 6.4 mg/kg/injection, schedule: Q08HX009 (ip), vehicle: water",121 % of control
same,T/C,"endpoint: mean survival time, dose: 7.2 mg/kg/injection, schedule: Q01DX009 (ip), vehicle: saline with Tween-80",115 % of control
same,T/C,"endpoint: mean survival time, dose: 7.4 mg/kg/injection, schedule: Q01DX009 (ip), vehicle: saline with Tween-80",120 % of control
same,T/C,"endpoint: mean survival time, dose: 7.6 mg/kg/injection, schedule: Q08HX006 (iv), vehicle: saline with Tween-80",101 % of control
same,T/C,"endpoint: mean survival time, dose: 7.6 mg/kg/injection, schedule: Q08HX009 (iv), vehicle: saline with Tween-80",89 % of control
same,T/C,"endpoint: mean survival time, dose: 8.2 mg/kg/injection, schedule: Q01DX009 (sc), vehicle: saline with Tween-80",98 % of control
same,T/C,"endpoint: mean survival time, dose: 9.0 mg/kg/injection, schedule: Q01DX009 (ip), vehicle: saline",121 % of control
same,T/C,"endpoint: mean survival time, dose: 9.4 mg/kg/injection, schedule: Q01DX009 (ip), vehicle: water",118 % of control
same,T/C,"endpoint: mean survival time, dose: 10.9 mg/kg/injection, schedule: Q01DX009 (sc), vehicle: saline with Tween-80",98 % of control
same,T/C,"endpoint: mean survival time, dose: 12.8 mg/kg/injection, schedule: Q01DX009 (ip), vehicle: saline with Tween-80",115 % of control
same,T/C,"endpoint: mean survival time, dose: 14.5 mg/kg/injection, schedule: Q01DX009 (ip), vehicle: saline with Tween-80",156 % of control
same,T/C,"endpoint: mean survival time, dose: 15.3 mg/kg/injection, schedule: Q08HX009 (iv), vehicle: saline with Tween-80",89 % of control
same,T/C,"endpoint: mean survival time, dose: 19.0 mg/kg/injection, schedule: Q01DX009 (sc), vehicle: water",113 % of control
same,T/C,"endpoint: mean survival time, dose: 19.4 mg/kg/injection, schedule: Q01DX005 (iv), vehicle: saline with Tween-80",118 % of control and 119 % of control
same,T/C,"endpoint: mean survival time, dose: 19.4 mg/kg/injection, schedule: Q01DX009 (ip), vehicle: saline with Tween-80",165 % of control
same,T/C,"endpoint: mean survival time, dose: 19.4 mg/kg/injection, schedule: Q01DX009 (sc), vehicle: saline with Tween-80",115 % of control
same,T/C,"endpoint: mean survival time, dose: 19.6 mg/kg/injection, schedule: Q08HX009 (ip), vehicle: saline with Tween-80",151 % of control
same,T/C,"endpoint: mean survival time, dose: 22.7 mg/kg/injection, schedule: Q01DX009 (ip), vehicle: saline with Tween-80",118 % of control
same,T/C,"endpoint: mean survival time, dose: 25.0 mg/kg/injection, schedule: Q01DX009 (ip), vehicle: water",109 % of control
same,T/C,"endpoint: mean survival time, dose: 25.3 mg/kg/injection, schedule: Q01DX009 (ip), vehicle: water",160 % of control
same,T/C,"endpoint: mean survival time, dose: 25.3 mg/kg/injection, schedule: Q01DX009 (sc), vehicle: water",115 % of control
same,T/C,"endpoint: mean survival time, dose: 25.8 mg/kg/injection, schedule: Q01DX005 (iv), vehicle: saline with Tween-80",117 % of control and 120 % of control
same,T/C,"endpoint: mean survival time, dose: 25.8 mg/kg/injection, schedule: Q01DX009 (ip), vehicle: saline with Tween-80",166 % of control
same,T/C,"endpoint: mean survival time, dose: 25.8 mg/kg/injection, schedule: Q01DX009 (sc), vehicle: saline with Tween-80",123 % of control
same,T/C,"endpoint: mean survival time, dose: 29.4 mg/kg/injection, schedule: Q01DX009 (ip), vehicle: saline with Tween-80",171 % of control
same,T/C,"endpoint: mean survival time, dose: 30.6 mg/kg/injection, schedule: Q08HX009 (iv), vehicle: saline with Tween-80",95 % of control
same,T/C,"endpoint: mean survival time, dose: 33.8 mg/kg/injection, schedule: Q01DX009 (sc), vehicle: water",124 % of control
same,T/C,"endpoint: mean survival time, dose: 34.4 mg/kg/injection, schedule: Q01DX005 (iv), vehicle: saline with Tween-80",116 % of control and 123 % of control
same,T/C,"endpoint: mean survival time, dose: 34.4 mg/kg/injection, schedule: Q01DX009 (ip), vehicle: saline with Tween-80",167 % of control
same,T/C,"endpoint: mean survival time, dose: 34.4 mg/kg/injection, schedule: Q01DX009 (sc), vehicle: saline with Tween-80",124 % of control
same,T/C,"endpoint: mean survival time, dose: 39.2 mg/kg/injection, schedule: Q08HX009 (ip), vehicle: saline with Tween-80",165 % of control
same,T/C,"endpoint: mean survival time, dose: 40.4 mg/kg/injection, schedule: Q01DX009 (ip), vehicle: saline with Tween-80",123 % of control
same,T/C,"endpoint: mean survival time, dose: 45.9 mg/kg/injection, schedule: Q01DX009 (ip), vehicle: saline with Tween-80",171 % of control
same,T/C,"endpoint: mean survival time, dose: 58.8 mg/kg/injection, schedule: Q01DX009 (ip), vehicle: saline with Tween-80",185 % of control
same,T/C,"endpoint: mean survival time, dose: 71.8 mg/kg/injection, schedule: Q01DX009 (ip), vehicle: saline with Tween-80",157 % of control
same,T/C,"endpoint: mean survival time, dose: 78.4 mg/kg/injection, schedule: Q08HX009 (ip), vehicle: saline with Tween-80",180 % of control
same,T/C,"endpoint: mean survival time, dose: 117.6 mg/kg/injection, schedule: Q01DX009 (ip), vehicle: saline with Tween-80",98 % of control
same,T/C,"endpoint: mean survival time, dose: 127.8 mg/kg/injection, schedule: Q01DX009 (ip), vehicle: saline with Tween-80",151 % of control
same,T/C,"endpoint: mean survival time, dose: 150.0 mg/kg/injection, schedule: Q01DX009 (ip), vehicle: saline with Tween-80",168 % of control and 174 % of control
same,T/C,"endpoint: mean survival time, dose: 300.0 mg/kg/injection, schedule: Q01DX009 (ip), vehicle: saline with Tween-80",120 % of control
same,T/C,"endpoint: median survival time, dose: 0.78 mg/kg/injection, schedule: Q01DX009 (ip), vehicle: water",98 % of control
same,T/C,"endpoint: median survival time, dose: 1.56 mg/kg/injection, schedule: Q01DX009 (ip), vehicle: water",93 % of control
same,T/C,"endpoint: median survival time, dose: 3.12 mg/kg/injection, schedule: Q01DX009 (ip), vehicle: water",98 % of control
same,T/C,"endpoint: median survival time, dose: 6.25 mg/kg/injection, schedule: Q01DX009 (ip), vehicle: water",109 % of control
same,T/C,"endpoint: median survival time, dose: 12.5 mg/kg/injection, schedule: Q01DX009 (ip), vehicle: water",117 % of control
